According to patent US11718592B2, “Oxadiazole derivative” (Sumitomo Pharma Co., Ltd., priority 2020, dated 2023):
Where two headings read alike, the source gives them in different places. Marks after values point to notes of the source that are not given here.

Experiments:
[1] = system: BALB/c-Scn1a<+/−> mice; assay: Anticonvulsant effect in mouse model of Dravet syndrome with febrile seizures; format: in vivo; details: oral; for Difference of the threshold temperature of convulsion from that of the control group: at the dose for anticonvulsive effect, hyperthermia 50 minutes after dosing; for Dose for anticonvulsive effect: dose needed to raise the threshold body temperature for inducing febrile seizures significantly compared with the control group
Source text: This is a test for evaluating the anticonvulsant effect for febrile seizures of the test compounds in a mouse model of Dravet syndrome. In this test, BALB/c-Scn1a<+/−> mice were used (catalog number: RBRC06422; they are available from RIKEN BioResource Research Center via the National BioResource Project). The present mouse model having a mutation in a responsible gene for Dravet syndrome, Scn1A, presents with symptoms similar to febrile seizures caused by hyperthermia which is a symptom in a patient suffering from Dravet syndrome, and can be used as an animal model of spontaneous Dravet syndrome (for reference: the Japan Epilepsy Research Foundation, Annual Report 2015: 26: 69-76). To male mice model of Dravet syndrome (one group: 5-8 mice, body weight: 20-30 g) were orally administered the test compound. 50 minutes later, the mice were put in a chamber warmed with hot bath to evoke hyperthermia, and observed about the development of febrile seizures. Immediately after febrile seizure was developed, the rectal temperature was measured and used as the threshold body temperature for inducing febrile seizures.

[2] = system: GABA(A) receptors; assay: Evaluation of the potentiating effect on GABA(A) receptors (electrophysiology, GABA(A) receptor expressing cells); format: cell-based; details: for Inhibition rate to the increased electric current by adding flumazenil: 2 μM GABA and test compound with 10 μM flumazenil; for The potentiating effect on GABA(A) receptors EC20: concentration giving 20% increase of the current generated by 2 μM GABA
Procedure: Using GABA(A) receptor expressing cells prepared according to Guideline for Generation of Stable Cell Lines (website of Lonza Japan; Non-patent Literature 4), the present test is done for evaluating the potentiating effect of a drug on GABA(A) receptors based on the electric current raised by GABA. The GABA(A) receptor expressing cells were used in electrophysiological study, wherein the electric current was measured when 2 μM GABA solution and then a mixture of 2 μM GABA and the test compound were added to the cells. […] In addition, the electric current generated by a mixture of 2 μM GABA solution and the test compound with 10 μM flumazenil was measured, and the inhibition rate for the electric current by adding flumazenil was calculated compared to the electric current obtained in the absence of flumazenil.

[3] = system: ddY male mice; assay: Test with model produced by subcutaneous injection of pentetrazol (minimum convulsion model, scPTZ); format: in vivo; details: 25 mg/kg oral administration
Procedure: In order to evaluate an antiepileptic drug, in general, a model produced by subcutaneous injection of pentetrazol (minimum convulsion model, scPTZ) is used, which has high clinical predictability. […] In this test, an animal model which expresses generalized absence seizure or myoclonic seizure was used. Test compounds were orally administered to Sic: ddY male mice (purchased from Japan SLC, Inc., 5 mice in each group, body weight 20-30 g). After an hour, pentetrazol (85 mg/kg) was subcutaneously administered. […] To control mice, 0.5% methylcellulose solution was administered, and the same test was done. The results are represented as the number of mice with no convulsion, per 5 mice. The present test was deemed to succeed when 4 mice among 5 mice in the control group developed convulsions.

[4] = system: Slc: ddy male mice; details: mouse, in vivo, po, 1 h
Procedure: The present test is a test for evaluating whether the test compound may disturb coordinated movement or not. Rotarod is an apparatus equipped with a rotating columnar bar whose diameter is 4 cm, in which a mouse is made to walk on the rotating bar, and the coordinated movement is evaluated from the result of walking (can walk or cannot walk). Slc: ddy male mice (purchased from Japan SLC, Inc., body weight: 20-30 g) were trained 3 hours before the test starts so that they could walk on a rotarod apparatus rotating with a speed of 12 rotations per minute for 5 minutes without falling. Only the mice which can walk in the training are used in the test. The test compound was orally administered to a group consisting of 5 mice. […] To control mice, 0.5% methylcellulose solution was administered as test compound, and the same test was also done. The coordinated movement was evaluated with the average of the five mice's walking time (second).

[5] = system: male Wister strain rats; assay: Antidepressant effect in rat forced swimming test; format: in vivo; details: for antidepressant effect / immobility time (in words): oral; for average rate of deceasing the immobility time per that of the control group: swim 5 minutes an hour later
Source text: The present test can evaluate antidepressant effect of a drug. When a rat is thrown into a water bath from which the rat cannot escape to be made to swim, the rat takes on escape behavior in the beginning and then becomes immobile. Next day, when the rat is thrown into a water bath again, the immobility appears earlier than that of the first trial. The method can evaluate the antidepressant effect of a test compound by using the duration of the immobility time as an indicator of depressive behavior. A day before the test, male Wister strain rats (purchased from Charles River Laboratories Japan, body weight: 260-300 g) were made to swim in a water bath for 15 minutes. On the test day, the test compound was orally administered to the rats (10-12 rats in one group). An hour later, the rats were made to swim again for 5 minutes and each immobility time was measured. In the control group, 0.5% methylcellulose solution as the test compound was administered to the rats which were subjected to the same behavior test. The antidepressant effect was indicated by the average rate of deceasing the immobility time per that of the control group.

SMILES	Difference of the threshold temperature of convulsion from that of the control group [1] [°C]	Dose for anticonvulsive effect [1] [mg/kg]	Inhibition rate to the increased electric current by adding flumazenil [2] [%]	The potentiating effect on GABA(A) receptors EC20 [2] [µM]	animals exhibiting anticonvulsant action (in words) [3]	average of the five mice's walking time ([4]; 25 mg/kg) [s]	average of the five mice's walking time ([4]; 50 mg/kg) [s]	average of the five mice's walking time ([4]; 100 mg/kg) [s]	antidepressant effect / immobility time (in words) [5]	average rate of deceasing the immobility time per that of the control group ([5]; oral 3 mg/kg)	average rate of deceasing the immobility time per that of the control group ([5]; oral 10 mg/kg)	average rate of deceasing the immobility time per that of the control group ([5]; oral 30 mg/kg)	potentiating effect on GABA(A) receptors (in words) [2]	inhibition of the potentiating effect on GABA(A) receptors with flumazenil (in words) ([2]; flumazenil, benzodiazepine antagonist)
CN1C(=O)CC[C@H]1c1nc(-c2ccc(F)cc2)no1 (single isomer, unassigned) [Example 31]	0.3	12.5	<0	15	more than half of the animals	180	53.2	0						
CN1C(=O)CCC1c1nc(-c2ccc(F)cc2)no1 (single isomer, unassigned) [Example 32]	0.5	25	<0	3.6			180	65.3	significantly decreased the immobility time	25.3*	31.6*	58.9*		
CCC(CC)(C(N)=O)c1nc(-c2ccc(Cl)cc2)no1 [Example 11, 2-[3-(4-chlorophenyl)-1,2,4-oxadiazol-5-yl]-2-ethylbutanamide]				5.1	more than half of the animals			180						
CC(C)(C(N)=O)c1nnc(-c2ccc(Br)cc2)o1 [Example 16, 2-[5-(4-bromophenyl)-1,3,4-oxadiazol-2-yl]-2-methylpropanamide]				>300	more than half of the animals			180						
CN1C(=O)CCC1c1nc(-c2ccc(F)cc2)no1 (stereo not shown) [Example 25, 5-[3-(4-Fluorophenyl)-1,2,4-oxadiazol-5-yl]-1-methylpyrrolidin-2-one]	0.3	12.5	12	16	more than half of the animals	180	144.8							
CN1C(=O)CCC1(C)c1nc(-c2ccc(F)cc2)no1 (stereo not shown) [Example 28, 5-[3-(4-fluorophenyl)-1,2,4-oxadiazol-5-yl]-1,5-dimethylpyrrolidin-2-one]			24	9.3	more than half of the animals		180							
CN1C(=O)CCC1c1nc(-c2ccc(Cl)cc2)no1 (stereo not shown) [Example 29, 5-[3-(4-chlorophenyl)-1,2,4-oxadiazol-5-yl]-1-methylpyrrolidin-2-one]	0.7	25	7	1.1		180	146.4		significantly decreased the immobility time	12.3	29.4*			
CN1C(=O)CCC1c1nc(-c2ccc(Br)cc2)no1 (stereo not shown) [Example 30, 5-[3-(4-bromophenyl)-1,2,4-oxadiazol-5-yl]-1-methylpyrrolidin-2-one]					more than half of the animals		180							
CN1C(=O)CN=C(c2ccccc2)c2cc(Cl)ccc21 [diazepam, reference compound]			93	0.03					did not show antidepressant effect		18.3		has the potentiating effect on GABA(A) receptors	strongly inhibited
